According to the OligoGym collection:
Oligonucleotides are written 5' to 3', each unit as a sugar letter and its base; * is a phosphorothioate linkage, no mark a phosphodiester; rarer units and linkages stand in square brackets, end groups in braces. Plain capitals give the bases only. Oligonucleotides are given in HELM: sugar(base)linkage, 5' to 3'; d 2'-deoxyribose, r ribose, m 2'-O-methylribose, p phosphate. ss, as = sense and antisense strand; d = 2'-deoxy (DNA); r = 2'-OH (RNA)

Biological target: SOST
Experiment: reporter assay of Huesken 2005
Conditions: siRNA
Further: test concentration or dose not given here.

Substance	normalised inhibition (eCFP-eYFP dual reporter)
RNA1{r(A)p.r(A)p.r(A)p.r(U)p.r(C)p.r(A)p.r(U)p.r(C)p.r(C)p.r(C)p.r(C)p.r(G)p.r(A)p.r(G)p.r(C)p.r(U)p.r(C)p.r(G)p.r(G)p.d(T)p.d(T)}|RNA2{r(C)p.r(C)p.r(G)p.r(A)p.r(G)p.r(C)p.r(U)p.r(C)p.r(G)p.r(G)p.r(G)p.r(G)p.r(A)p.r(U)p.r(G)p.r(A)p.r(U)p.r(U)p.r(U)p.d(C)p.d(C)}$$$RNA1{StrandType:ss}|RNA2{StrandType:as}$	49.8%
RNA1{r(A)p.r(A)p.r(C)p.r(A)p.r(A)p.r(G)p.r(A)p.r(C)p.r(C)p.r(A)p.r(U)p.r(G)p.r(A)p.r(A)p.r(C)p.r(C)p.r(G)p.r(G)p.r(G)p.d(T)p.d(T)}|RNA2{r(C)p.r(C)p.r(C)p.r(G)p.r(G)p.r(U)p.r(U)p.r(C)p.r(A)p.r(U)p.r(G)p.r(G)p.r(U)p.r(C)p.r(U)p.r(U)p.r(G)p.r(U)p.r(U)p.d(G)p.d(T)}$$$RNA1{StrandType:ss}|RNA2{StrandType:as}$	69.7%
RNA1{r(A)p.r(A)p.r(G)p.r(A)p.r(C)p.r(G)p.r(U)p.r(G)p.r(U)p.r(C)p.r(C)p.r(G)p.r(A)p.r(G)p.r(U)p.r(A)p.r(C)p.r(A)p.r(G)p.d(T)p.d(T)}|RNA2{r(C)p.r(U)p.r(G)p.r(U)p.r(A)p.r(C)p.r(U)p.r(C)p.r(G)p.r(G)p.r(A)p.r(C)p.r(A)p.r(C)p.r(G)p.r(U)p.r(C)p.r(U)p.r(U)p.d(T)p.d(G)}$$$RNA1{StrandType:ss}|RNA2{StrandType:as}$	87.1%
RNA1{r(A)p.r(A)p.r(G)p.r(G)p.r(A)p.r(C)p.r(U)p.r(U)p.r(C)p.r(G)p.r(G)p.r(G)p.r(A)p.r(C)p.r(C)p.r(G)p.r(A)p.r(G)p.r(G)p.d(T)p.d(T)}|RNA2{r(C)p.r(C)p.r(U)p.r(C)p.r(G)p.r(G)p.r(U)p.r(C)p.r(C)p.r(C)p.r(G)p.r(A)p.r(A)p.r(G)p.r(U)p.r(C)p.r(C)p.r(U)p.r(U)p.d(G)p.d(A)}$$$RNA1{StrandType:ss}|RNA2{StrandType:as}$	58.7%
RNA1{r(A)p.r(C)p.r(A)p.r(A)p.r(C)p.r(A)p.r(A)p.r(G)p.r(A)p.r(C)p.r(C)p.r(A)p.r(U)p.r(G)p.r(A)p.r(A)p.r(C)p.r(C)p.r(G)p.d(T)p.d(T)}|RNA2{r(C)p.r(G)p.r(G)p.r(U)p.r(U)p.r(C)p.r(A)p.r(U)p.r(G)p.r(G)p.r(U)p.r(C)p.r(U)p.r(U)p.r(G)p.r(U)p.r(U)p.r(G)p.r(U)p.d(T)p.d(C)}$$$RNA1{StrandType:ss}|RNA2{StrandType:as}$	52.2%
RNA1{r(A)p.r(C)p.r(C)p.r(A)p.r(U)p.r(G)p.r(A)p.r(A)p.r(C)p.r(C)p.r(G)p.r(G)p.r(G)p.r(C)p.r(G)p.r(G)p.r(A)p.r(G)p.r(A)p.d(T)p.d(T)}|RNA2{r(U)p.r(C)p.r(U)p.r(C)p.r(C)p.r(G)p.r(C)p.r(C)p.r(C)p.r(G)p.r(G)p.r(U)p.r(U)p.r(C)p.r(A)p.r(U)p.r(G)p.r(G)p.r(U)p.d(C)p.d(T)}$$$RNA1{StrandType:ss}|RNA2{StrandType:as}$	69.5%
RNA1{r(A)p.r(C)p.r(C)p.r(G)p.r(G)p.r(A)p.r(G)p.r(C)p.r(U)p.r(G)p.r(G)p.r(A)p.r(G)p.r(A)p.r(A)p.r(C)p.r(A)p.r(A)p.r(C)p.d(T)p.d(T)}|RNA2{r(G)p.r(U)p.r(U)p.r(G)p.r(U)p.r(U)p.r(C)p.r(U)p.r(C)p.r(C)p.r(A)p.r(G)p.r(C)p.r(U)p.r(C)p.r(C)p.r(G)p.r(G)p.r(U)p.d(G)p.d(G)}$$$RNA1{StrandType:ss}|RNA2{StrandType:as}$	83.3%

Biological target: UBE2M
Experiment: reporter assay of Huesken 2005
Conditions: siRNA

Substance	normalised inhibition (eCFP-eYFP dual reporter)
sense rUrUrCrUrArCrArArGrArGrUrGrGrGrArArGrUdTdT / antisense rArCrUrUrCrCrCrArCrUrCrUrUrGrUrArGrArAdGdC	68.9%
sense rUrUrUrGrUrGrUrUrCrArGrUrUrUrUrArArGrGdTdT / antisense rCrCrUrUrArArArArCrUrGrArArCrArCrArArAdCdT	51.1%
